Assay results as given in patent publication US20080113016A1, “Method for Prevention or Treatment of Inflammatory Disease” (priority 2004, published 2008).
Entries after “also recorded” stand apart in the source; their conditions may differ. Where two headings read alike, the source gives them in different places. Marks after values point to notes of the source that are not given here.

Assays:
[1] = test system: rats with adjuvant arthritis; experiment: Adjuvant arthritis: radiographic joint damage, semiquantitative score; assay type: in vivo, rat
Protocol: (§1) Adjuvant arthritis. Male Lewis rats (150-200 g) were immunized at the base of the tail with 0.1 ml of complete Freund's adjuvant (CFA) on day 0. […] Clinical signs of arthritis generally begin on day 10, and paw swelling was determined every second day by water displacement plethysmometry. […] Prior to daily drug delivery, rats were individually assessed for ability to walk and bear weight on their hind paws. On the day of sacrifice, a probe with a 24 gm bending force was applied to the lateral ankle of each hind paw for 4 s. Animals were graded (0/1) on whether they vocalized. Roentgenograms were obtained of the hind paws to assess bone changes using a semi-quantitative scoring system (demineralization (0 to 2+), ankle and mid-foot erosions (0 to 2+), calcaneal erosion (0 to 1+), heterotopic bone formation (0 to 1+) (maximum possible score=6). Paws were fixed in formalin and decalcified for 2-3 days. Sections from paraffin embedded tissue were stained with hematoxylin and eosin. A synovial inflammation score was determined using a semi-quantitative scale that measures synovial inflammation (0-2+), cartilage integrity (0-2+), bone erosions (0-2+), marrow infiltration (0-2+), proteoglycans loss (0-2+ in safranin 0 stained sections) and extra-articular inflammation (0-2+) (maximum score 12). Subjective assessments were made by an investigator blinded to the drug treatment.

[2] = test system: rats with adjuvant arthritis; experiment: Adjuvant arthritis: behavioral pain (vocalization to 24 gm ankle pressure); assay type: in vivo, rat; conditions: 24 gm bending force to lateral ankle for 4 s on day 20
Text: The effect of IT SB203580 on the clinical manifestations of adjuvant arthritis was examined. […] Paw swelling was inversely correlated with behavioral analysis as determined by weight bearing in hind limbs.
(§2) Intrathecal (IT) catherization of rats. All animals were handled in accordance with USDA guidelines, and all procedures have been carefully reviewed and approved by the institutional animal subjects committee. Rats (200-300 g) were housed for at least one week before use. Isoflurane anesthesia was used for all surgical procedures. Animals were implanted with an intrathecal (IT) catheter modified from the method previously described. Yaksh, et al. Physiol. Behav. 17:1031-6, 1976. After a six day recovery period, all animals except those that appeared to have sensory or motor abnormalities (less than 5% of the total number) were used for experiments. For IT administration, 10 μl of drug or vehicle followed by 10 μl of isotonic saline was injected through the catheter.
Adjuvant arthritis. Male Lewis rats (150-200 g) were immunized at the base of the tail with 0.1 ml of complete Freund's adjuvant (CFA) on day 0. […] Clinical signs of arthritis generally begin on day 10, and paw swelling was determined every second day by water displacement plethysmometry. […] Prior to daily drug delivery, rats were individually assessed for ability to walk and bear weight on their hind paws. […]

[3] = test system: rats with adjuvant arthritis; experiment: Adjuvant arthritis: paw swelling by water displacement plethysmometry; assay type: in vivo, rat
Protocol: […] Paw swelling was measured by water displacement plethysmometry.
as §2, §1

[4] = test system: synovial IL-1, IL-6 and MMP3 gene expression; experiment: Adjuvant arthritis: joint gene expression by quantitative real time PCR; assay type: in vivo, rat; conditions: intrathecal 8 μg daily day 8-20 vs IT saline, hind paws
Protocol: Rats were immunized with CFA on day 0 and treated daily with intrathecal SB203580 (8 μg) or intrathecal saline beginning on day 8-20. (A) Quantitative real time PCR was performed on the hind paws. Normal rat joints are also shown as a control.
Q-PCR. Ankle joints were excised and trimmed of skin. The tissue was then pulverized and RNA extracted using RNA-STAT-60 and standard techniques. The RNA was reversed transcribed into cDNA using random hexamer primers. TaqMan PCR amplification reactions were carried out in reaction volumes of 25 μl in MicroAmp Optical Plates and MicroAmp Optical Caps using the TaqMan Universal Master Mix with a Perkin Elmer 5700 thermal cycler. Each sample was analyzed in triplicate using 50 ng of cDNA in the reaction. Thermal cycling was initiated with a 2 min incubation at 50° C., followed by 10 min at 95° C. to activate the AmpliTaq polymerase and then 40 cycles of 95° C. for 15 s/60° C. for 1 min. GADPH was used as a loading control for in each sample. The standard curve method was used for quantification as previously described. Boyle, et al. Arthritis Res. Ther. 5:R352-360, 2003.

[5] = test system: rats with adjuvant arthritis; experiment: Adjuvant arthritis: histologic joint damage, semiquantitative score; assay type: in vivo, rat
Protocol: Rats were immunized with CFA on day 0 and treated daily with intrathecal SB203580 (8 μg) or intrathecal saline beginning on day 8-20. Left panel is vehicle and right panel is SB203580. […] Representative sections are shown illustrating decreased erosions, cartilage damage and synovial inflammation in the treated group.
Adjuvant arthritis. Male Lewis rats (150-200 g) were immunized at the base of the tail with 0.1 ml of complete Freund's adjuvant (CFA) on day 0. Drug (IT or subcutaneous SB203580 or IT vehicle) treatment started on day 8 and continued on a daily basis until day 20. Clinical signs of arthritis generally begin on day 10, and paw swelling was determined every second day by water displacement plethysmometry. […] Prior to daily drug delivery, rats were individually assessed for ability to walk and bear weight on their hind paws. On the day of sacrifice, a probe with a 24 gm bending force was applied to the lateral ankle of each hind paw for 4 s. Animals were graded (0/1) on whether they vocalized. […]

spinal nerve ligation = conditions: administered intrathecally before spinal nerve ligation, cited from earlier work
[6] = intrathecal etanercept 100 or 300 μg q.o.d.

| Molecule | Radiographic joint damage (bone erosions, cartilage loss, demineralization) ([1]; intrathecal 8 μg daily day 8-20, p<0.05) | Radiographic joint damage ([1]; systemic (subcutaneous) treatment, same dose 8 μg) | Positive vocalization (animals that vocalize / total number) ([2]; intrathecal (IT) SB203580 8 μg daily day 8-20) | Positive vocalization (animals that vocalize / total number) ([2]; subcutaneous (SC) SB203580 8 μg daily day 8-20) | Paw swelling ([3]; intrathecal 8 μg daily day 8-20, compared with IT saline or same dose subcutaneously) | Effect in adjuvant arthritis (paw swelling, synovial infiltration, joint destruction) ([3]; same dose (8 μg) delivered systemically (subcutaneous)) | Synovial IL-1 gene expression [4] | Synovial IL-6 gene expression [4] | MMP3 gene expression ([4]; p<0.05) | Histologic joint damage and inflammation (semiquantitative score) ([5]; intrathecal 8 μg daily day 8-20 vs IT saline) | Leukocyte infiltration into synovium ([5]; intrathecal catheter administration) | Radiographic evidence of joint destruction [1, 6] | Allodynia (spinal nerve ligation) | Increase in spinal cord P-p38 / p38 activation (spinal nerve ligation) | Increase in spinal cord P-p38 / p38 activation (spinal nerve ligation; listed as etanercept) | Paw swelling [3, 6] | Paw swelling ([3]; subcutaneous 50 μg every other day from day 1, day 20) [mL] | Paw swelling ([3]; subcutaneous 100 μg every other day from day 1, day 20) [mL] | Paw swelling ([3]; subcutaneous 300 μg every other day from day 1, day 20) [mL] | Paw swelling on day 20 ([3]; systemic treatment with the same doses as intrathecal) |
| --- | --- | --- | --- | --- | --- | --- | --- | --- | --- | --- | --- | --- | --- | --- | --- | --- | --- | --- | --- | --- |
| C[S+]([O-])c1ccc(-c2nc(-c3ccncc3)c(-c3ccc(F)cc3)[nH]2)cc1 (centres unmarked) [SB203580] | significantly decreased | no effect | 0/6** | 4/6 | significantly decreased; also recorded: markedly suppressed | no effect | significantly decreased | significantly decreased | significantly decreased | significantly decreased | decreased | – | – | – | – | – | – | – | – | – |
| Etanercept | – | – | – | – | – | – | – | – | – | – | – | significantly decreased | inhibits | blocks | inhibits | significantly decreased | 1.51 ± 0.20 | 1.75 ± 0.18 | 1.67 ± 0.16 | no effect |
